Experimental data reported in PMC7317212 (Chemmedchem, 2020).

How the values were obtained:
mGAT1 [1] = molecular target: T1, mGAT1 (Mus musculus, UniProt P31648); assay: MS Binding Assay with NO711 as native MS marker; conditions: in presence of 100 μM compound; read-out: remaining specific NO711 binding (mGAT1)
T1 construct: expressed in transfected cells; host or cells: HEK293
Method: (§1) For compounds with pIC50 ([^3H]GABA uptake assay) or pK i (MS Binding Assays) values close to or above 5.0, these experiments were repeated twice and SEM have been calculated.
MS Binding Assays: The MS Binding Assays were performed with mGAT1 membrane preparations obtained from a stably mGAT1 expressing HEK293 cell line and NO711 as unlabeled marker in competitive binding experiments as previously described in detail.34 In short, test compounds were investigated at 7 concentrations in presence of 10 nM NO 711 in competition experiments. Non specific binding was defined as binding remaining in the presence of 100 mM GABA. Incubation was terminated by transfer of 200 μL per well onto a 96‐well filter plate (Acroprep, glass fibre, 1.0 μm, 350 μL, Pall, Dreieich, Germany) with a 12 channel pipette. After rapid vacuum‐filtration the filters were washed with ice cold 0.9 % NaCl (5×150 μL) and dried at 50 °C for 60 min. Afterwards, the filters were eluted with 100 μL methanol containing [^2H10]NO711 (1.4 nM) as internal standard per well into a deep‐well plate by application of vacuum. This step was repeated twice resulting in a total elution volume of 300 μL. Finally, a volume of 130 μL ammonium formate buffer (10 mM, pH 7.0) was added per well and the generated samples analyzed by LC‐ESI‐MS/MS using a API 3200 as described in detail previously.40

mGAT1 [2] = molecular target: T1, mGAT1; assay: [^3H]GABA uptake assay, HEK293 cells expressing mGAT1; format: cell-based; conditions: for remaining activity at 100 µM: HEK293, in presence of 100 μM compound
Method: as §1
(§2) [^3H]GABA uptake assays: The [^3H]GABA uptake assays were performed according to Kragler et al.33 Cells were grown in 150 cm^2 plates to a confluence of 70–90 % up to passage 25. After detachment the cells were centrifuged 5 min at 500×g, washed for three times in phosphate buffered saline and, finally, resuspended in Krebs buffer (2.5 mM CaCl2, 1.2 mM MgSO4, 1.2 mM KH2PO4, 4.7 mM KCl, 11 mM glucose, 25 mM Tris, 119 mM NaCl, pH 7.2). The uptake assays were performed with aliquots of the resulting cell suspension (about 100000–200000 cells per well) in a total volume of 250 μl in 96 well 2.2 mL deep well plates. The cells were equilibrated for 25 min in Krebs buffer in the presence of the test compound at 37 °C in a gently shaking water bath. […] After addition of 25 μl of a solution containing [^3H]GABA (2.22 TBq/mmol, ARC, St Louis, MO, USA) and unlabeled GABA in Krebs (final concentration 8 nM [^3H]GABA and 32 nM unlabeled GABA for mGAT1, mGAT3, mGAT4 and 20 nM [^3H]GABA and 20 nM unlabeled GABA for mGAT2) the cells were incubated for further 4 min (mGAT1, mGAT3, mGAT4) or 10 minutes (mGAT2), respectively. The incubation was stopped by filtration through Sartorius MGC micro glass fiber filters pre‐soaked for 1 h in 0.9 % NaCl by means of a Brandell MWXR‐96TI cell harvester (Brandell, Gaithersburg, MD, USA) under reduced pressure. The filters were rinsed two times with cold 0.9 % NaCl and subsequently transferred to 96 well sample plates (Perkin Elmer LAS, Boston, MA, USA). After addition of 200 μl Rotiszint Eco Plus (Roth, Karlsruhe, Germany) per well the radioactivity was determined in a microbeta liquid scintillation counter (Perkin Elmer LAS, Boston, MA, USA). Non‐specific uptake was determined in presence of 10 mM GABA for mGAT1, mGAT3 and mGAT4 or 100 mM GABA for mGAT2, respectively. The results are expressed as means±S.E.M. of at least three separate experiments, each carried out in triplicate.

mGAT2 = molecular target: T2, mGAT2 (Mus musculus, UniProt P31651); assay: [^3H]GABA uptake assay, HEK293 cells expressing mGAT2; format: cell-based; conditions: for remaining activity at 100 µM: HEK293, in presence of 100 μM compound; for IC50: [^3H]GABA uptake, pIC50±SEM
T2 construct: expressed in transfected cells; host or cells: HEK293
T2 sequence (P31651 1-614): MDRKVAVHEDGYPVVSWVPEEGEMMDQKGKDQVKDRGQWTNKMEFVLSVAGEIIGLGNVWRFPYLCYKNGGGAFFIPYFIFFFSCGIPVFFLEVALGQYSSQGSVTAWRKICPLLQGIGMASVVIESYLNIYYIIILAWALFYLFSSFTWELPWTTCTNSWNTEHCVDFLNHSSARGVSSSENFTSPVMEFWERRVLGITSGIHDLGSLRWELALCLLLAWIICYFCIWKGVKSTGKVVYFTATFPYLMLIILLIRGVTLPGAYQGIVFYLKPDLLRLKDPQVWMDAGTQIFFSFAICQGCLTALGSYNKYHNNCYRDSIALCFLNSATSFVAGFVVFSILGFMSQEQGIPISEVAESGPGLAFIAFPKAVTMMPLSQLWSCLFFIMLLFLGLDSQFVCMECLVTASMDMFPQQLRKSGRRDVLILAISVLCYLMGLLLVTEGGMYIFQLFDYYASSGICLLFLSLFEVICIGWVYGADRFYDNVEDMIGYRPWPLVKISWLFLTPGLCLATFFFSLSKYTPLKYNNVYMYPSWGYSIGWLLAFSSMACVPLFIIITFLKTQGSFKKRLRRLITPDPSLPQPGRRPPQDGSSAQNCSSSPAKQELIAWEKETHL
Method: as §1, §2

mGAT3 = molecular target: T3, mGAT3 (Mus musculus, UniProt P31649); assay: [^3H]GABA uptake assay, HEK293 cells expressing mGAT3; format: cell-based; conditions: for remaining activity at 100 µM: HEK293, in presence of 100 μM compound; for IC50: [^3H]GABA uptake, pIC50±SEM
T3 construct: expressed in transfected cells; host or cells: HEK293
T3 sequence (P31649 1-602): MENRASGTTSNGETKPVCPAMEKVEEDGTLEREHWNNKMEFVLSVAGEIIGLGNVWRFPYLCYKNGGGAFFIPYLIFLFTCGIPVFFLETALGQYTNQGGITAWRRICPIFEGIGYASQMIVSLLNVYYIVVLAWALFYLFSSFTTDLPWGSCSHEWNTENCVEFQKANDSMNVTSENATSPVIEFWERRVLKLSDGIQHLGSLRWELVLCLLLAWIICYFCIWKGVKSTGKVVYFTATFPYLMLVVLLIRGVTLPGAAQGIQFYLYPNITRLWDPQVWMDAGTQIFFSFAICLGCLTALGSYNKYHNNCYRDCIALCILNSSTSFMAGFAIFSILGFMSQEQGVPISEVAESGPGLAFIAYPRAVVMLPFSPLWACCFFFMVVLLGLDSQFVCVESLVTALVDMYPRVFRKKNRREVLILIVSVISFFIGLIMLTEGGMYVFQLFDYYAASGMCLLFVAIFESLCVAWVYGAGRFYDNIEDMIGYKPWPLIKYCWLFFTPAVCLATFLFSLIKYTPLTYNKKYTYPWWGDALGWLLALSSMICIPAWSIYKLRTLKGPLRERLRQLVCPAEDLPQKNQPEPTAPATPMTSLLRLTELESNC
Method: as §1, §2

mGAT4 = molecular target: T4, mGAT4 (Mus musculus, UniProt P31650); assay: [^3H]GABA uptake assay, HEK293 cells expressing mGAT4; format: cell-based; conditions: for remaining activity at 100 µM: HEK293, in presence of 100 μM compound; for IC50: [^3H]GABA uptake, pIC50±SEM
T4 construct: expressed in transfected cells; host or cells: HEK293
T4 sequence (P31650 1-627): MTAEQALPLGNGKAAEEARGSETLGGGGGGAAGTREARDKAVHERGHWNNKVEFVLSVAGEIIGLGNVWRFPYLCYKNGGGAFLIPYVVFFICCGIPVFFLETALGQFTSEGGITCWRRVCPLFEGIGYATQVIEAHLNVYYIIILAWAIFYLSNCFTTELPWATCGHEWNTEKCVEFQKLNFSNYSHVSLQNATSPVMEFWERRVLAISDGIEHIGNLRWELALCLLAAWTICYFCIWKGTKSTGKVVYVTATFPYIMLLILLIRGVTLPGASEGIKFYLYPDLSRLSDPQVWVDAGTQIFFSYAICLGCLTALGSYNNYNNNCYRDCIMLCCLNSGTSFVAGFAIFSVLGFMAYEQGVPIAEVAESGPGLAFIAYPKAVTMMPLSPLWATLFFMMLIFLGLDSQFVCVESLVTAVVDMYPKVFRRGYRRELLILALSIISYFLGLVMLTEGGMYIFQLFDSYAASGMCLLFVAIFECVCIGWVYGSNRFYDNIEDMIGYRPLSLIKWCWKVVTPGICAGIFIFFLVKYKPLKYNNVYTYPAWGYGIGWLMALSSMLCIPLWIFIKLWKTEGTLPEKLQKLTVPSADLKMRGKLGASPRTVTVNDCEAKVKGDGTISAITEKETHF
Method: as §1, §2

Structure (SMILES) | remaining activity at 100 µM (mGAT1 [1]) [%] | remaining activity at 100 µM (mGAT1 [2]) [%] | remaining activity at 100 µM (mGAT2) [%] | remaining activity at 100 µM (mGAT3) [%] | remaining activity at 100 µM (mGAT4) [%] | IC50 (mGAT1 [2]; [^3H]GABA uptake, pIC50±SEM) [µM] | IC50 (mGAT2) [µM] | IC50 (mGAT3) [µM] | IC50 (mGAT4) [µM]
CCOC(=O)C1CCCN(CCOC(c2ccc(OC)cc2)(c2ccc(OC)cc2)c2ccc(C(C)=O)cc2)C1 (racemic) [12 b, rac‐ Ethyl 1‐{2‐[(4‐acetylphenyl)bis(4‐methoxyphenyl)methoxy]ethyl}‐piperidine‐3‐carboxylate] | 84.6 | 72.9 | 66.4 | 55.2 | 84.2 | – | – | – | –
CCOC(=O)C1CCCN(CCOC(c2ccc(OC)cc2)(c2ccc(OC)cc2)c2ccc(S(=O)(=O)N(C)C)cc2)C1 (racemic) [12 c, rac‐ Ethyl 1‐(2‐{[4‐(N,N‐dimethylsulfamoyl)phenyl]bis[4‐methoxyphenyl]‐methoxy}ethyl)piperidine‐3‐carboxylate] | 93.8 | 75.7 | 73.2 | 95.9 | 94.3 | – | – | – | –
CCOC(=O)C1CCCN(CCOC(c2ccc(OC)cc2)(c2ccc(OC)cc2)c2ccc3nccn3c2)C1 (racemic) [12 d, rac‐ Ethyl 1‐(2‐{imidazo[1,2‐a]pyridin‐6‐ylbis(4‐methoxyphenyl)methoxy}‐ethyl)piperidine‐3‐carboxylate] | 77.2 | – | – | – | – | 40.7 | 13.2 | 19.5 | 57.5
CCOC(=O)c1ccc(C(OCCN2CCCC(C(=O)OCC)C2)(c2ccc(OC)cc2)c2ccc(OC)cc2)cc1 (racemic) [12 e, rac‐ Ethyl 1‐(2‐{[4‐(ethoxycarbonyl)phenyl]bis[4‐methoxyphenyl]‐methoxy}ethyl)piperidine‐3‐carboxylate] | 74.8 | 84.6 | 87.3 | 79 | 76.1 | – | – | – | –
CCOC(=O)C1CCCN(CCOC(c2ccc(COC)cc2)(c2ccc(OC)cc2)c2ccc(OC)cc2)C1 (racemic) [12 f, rac‐ Ethyl 1‐(2‐{[4‐(methoxymethyl)phenyl]bis[4‐methoxyphenyl]‐methoxy}ethyl)piperidine‐3‐carboxylate] | 55.3 | 66.6 | 58.8 | 56.9 | 50.8 | – | – | – | –
CCOC(=O)C1CCCN(CCOC(c2ccc(C#N)cc2)(c2ccc(OC)cc2)c2ccc(OC)cc2)C1 (racemic) [12 g, rac‐ Ethyl 1‐{2‐[(4‐cyanophenyl)bis(4‐methoxyphenyl)methoxy]ethyl}‐piperidine‐3‐carboxylate] | 97.6 | 76.6 | 80.7 | 63.6 | 71.9 | – | – | – | –
CCOC(=O)C1CCCN(CCOC(c2ccc(COC)cc2)(c2ccc(COC)cc2)c2ccc(OC)cc2)C1 (racemic) [12 h, rac‐ Ethyl 1‐(2‐{bis[4‐(methoxymethyl)phenyl][4‐methoxyphenyl]‐methoxy}ethyl)piperidine‐3‐carboxylate] | 72.9 | 64.9 | – | 50.6 | – | – | 50.1 | – | 89.1
CCOC(=O)C1CCCN(CCOC(c2ccc(COC)cc2)(c2ccc(COC)cc2)c2ccc(COC)cc2)C1 (racemic) [12 i, rac‐ Ethyl 1‐(2‐{tris[4‐(methoxymethyl)phenyl]methoxy}ethyl)piperidine‐3‐carboxylate] | 87.5 | 70.3 | 65 | – | 51.4 | – | – | 95.5 | –
CCOC(=O)C1CCCN(CCOC(c2ccc(OC)cc2)(c2ccc(OC)cc2)c2ccc(C(N)=O)cc2)C1 (racemic) [12 j, rac‐ Ethyl 1‐{2‐[(4‐carbamoylphenyl)bis(4‐methoxyphenyl)methoxy]‐ethyl}piperidine‐3‐carboxylate] | 89.3 | 57.8 | 56.1 | – | 60 | – | – | 79.4 | –
CCOC(=O)C1CCCN(CCOC(C(=O)OC)(c2ccc(OC)cc2)c2ccc(OC)cc2)C1 (racemic) [12 k, rac‐ Ethyl 1‐{2‐[2‐methoxy‐1,1‐bis(4‐methoxyphenyl)‐2‐oxoethoxy]ethyl}‐piperidine‐3‐carboxylate] | 90.8 | 89.1 | 92.6 | 64.1 | 78.2 | – | – | – | –
